What was measured:
retina = assay: Ex-vivo staining of porcine eyes, dye extraction and HPLC quantification in retina near the peeled area; settings: ex-vivo swine eyes; for increase in the dyes content in the retina with respect to the staining formulation according to the invention: p=0.004
Procedure: (§1) To this end, a staining composition according to the invention was prepared having the following formulation (% by weight). • dye: Benzyl-BBG according to Example 4: 0.025% • Sodium phosphate monobasic dihydrate: 0.368% (SIGMA ALDRICH) • Sodium phosphate bibasic dihydrate: 0.711% (SIGMA ALDRICH) • Sodium chloride: 0.400% (SIGMA ALDRICH) • water for injectables: up to 100% (FRESENIUS KABI ITALIA S.R.L.).
(§2) This staining composition was compared with two staining composition available on the market, more specifically: • a staining composition including BBG and marketed under the trade name of ILM-BLUE® (D.O.R.C. Dutch Ophthalmic Research Center (International) B.V.), and with • a staining composition including methyl-BBG according to WO 2016/189475 marketed under the trade name of VIEW-ILM (AL.CHI.MI.A. S.r.l.).
(§3) Porcine eyes were obtained from a slaughterhouse and were prepared within 5 hours after death, the eyes were placed on a plastic holder, and a 360-degree limbal incision was performed for corneal removal, followed by total iris removal. Whole vitreous was gently extracted.
Next, 1 ml of BSS was placed in the eye and 40 µl of dye formulation was gently placed in the eye, by a Gilson pipet, for 30 seconds; then the BSS along the dye were removed and the eye rinsed with BSS. […]
Retina and ILM tissue samples obtained as described above were weighed and homogenized in 250-500 µl of methanol. […] The residues were reconstituted in 100 µl of mobile phase by vortexing for 120 s, filtered again on 0.45 µm filters and, finally, 20 µl aliquots were injected onto the chromatographic apparatus (each sample was analyzed in triplicate). […]
(§4) Quantification of the dye molecule was performed using 6-10 points external regression curves performed at 613 nm. […]
(§5) In the data analysis, statistical differences of ex-vivo data are determined using analysis of variance (ANOVA) followed by the Bonferroni-Dunn post hoc pairwise comparison procedure. […]

[1] = system: proteins and protein chains; assay: SDS-PAGE protein staining, whole set of molecular weight standards (spots versus background); settings: result in words; dye 0.05% by weight/volume
Procedure: The dye molecules according to the invention were tested in order to show their higher selectivity for proteins and protein chains with respect to BBG. For this purpose, SDS-PAGE electrophoresis tests were performed in order to compare the Benzyl-BBG according to the invention (Example 4) and the Ethyl-BBG according to Example 2 with a commercially available grade of BBG (Sigma-Aldrich 90% purity).
A set of molecular weight standards was created by mixing different amounts of known proteins (E.coli beta-galactosidase - 116.3 kDa, bovine serum albumin - 66.5 kDa, chicken ovalbumin - 42.7 kDa and equine cytochrome C - 12,384 Da) in such a way as to obtain bands of similar intensity. In order to do so, an inverse relationship between amount (as nanograms of protein) and molecular weight of any protein was initially achieved, and small adjustments were experimentally made. Polyacrylamide gel electrophoresis was done in 9% precast gels (Bio-Rad) at 20V for 60-90 minutes in denaturing conditions; standards were loaded in triplicate on separate lanes. […]

ILM = assay: Ex-vivo staining of porcine eyes, dye extraction and HPLC quantification in peeled ILM; settings: ex-vivo swine eyes; for amounts of the dye molecule in the ILM (mean): 40 µl dye formulation in 1 ml BSS for 30 seconds, mean of 6, BBG 0.025% (ILM-BLUE), methyl-BBG 0.03% (VIEW-ILM), Benzyl-BBG 0.025%
Procedure: as §1, §2, §3
Next, 1 ml of BSS was placed in the eye and 40 µl of dye formulation was gently placed in the eye, by a Gilson pipet, for 30 seconds; then the BSS along the dye were removed and the eye rinsed with BSS.
The peeling of ILM was carried out by forceps and the tissue placed in an Eppendorf tube, the rest of retina near the area of ILM peeling was collected and placed in another Eppendorf tube.
The average amount of ILM tissue was of about 2 mg, whereas the average amount of retina tissue was of about 20 mg.
All tissues (ILM and retina) were stored at -20°C before HPLC analysis.
Retina and ILM tissue samples obtained as described above were weighed and homogenized in 250-500 µl of methanol. The homogenates were then transferred in an Eppendorf tube, ultrasonically extracted using a Branson Sonifier, centrifuged at 1,000 x g for 10 min and filtered on 0.45 µm syringe filters. The filtrates were transferred into labeled, clean test tubes and evaporated to dryness under a stream of nitrogen. The residues were reconstituted in 100 µl of mobile phase by vortexing for 120 s, filtered again on 0.45 µm filters and, finally, 20 µl aliquots were injected onto the chromatographic apparatus (each sample was analyzed in triplicate). […]
as §4, §5

[2] = cited from earlier work

In the case of `CCOc1ccc(Nc2ccc(C(=C3C=CC(=[N+](CC)Cc4cccc(S(=O)(=O)[O-])c4)C=C3C)c3ccc(N(CC)Cc4cccc(S(=O)(=O)O)c4)cc3C)cc2)cc1` [BBG, Coomassie Brilliant Blue G-250], the “increase in the dyes content in the retina with respect to the staining formulation according to the invention” value (retina) is reported as 20.1 fold.
With `CCOc1ccc(N(Cc2ccccc2)c2ccc(C(=C3C=CC(=[N+](CC)Cc4cccc(S(=O)(=O)[O-])c4)C=C3C)c3ccc(N(CC)Cc4cccc(S(=O)(=O)O)c4)cc3C)cc2)cc1` [Benzyl-BBG] the “amounts of the dye molecule in the retina (mean)” value (retina; 40 µl dye formulation in 1 ml BSS for 30 seconds, mean of 6, BBG 0.025% (ILM-BLUE), methyl-BBG 0.03% (VIEW-ILM), Benzyl-BBG 0.025%) was 19.69 ng/mg tissue, the “difference between the spot intensity of Benzyl-BBG and Ethyl-BBG” value [1] was “No significant difference” and the “amounts of the dye molecule in the ILM (mean)” value (ILM) was 214.88 ng/mg tissue. The “amounts of the dye molecule in the ILM (mean)” value (ILM; listed as benzyl-BBG) was “about 215 ng/mg tissue”, the “increase of dye content in ILM with respect to the known formulation including BBG” value (ILM; p = 0,002) was 2.9 fold and the “increase of dye content in ILM with respect to the known formulation including methyl-BBG” value (ILM; p<0,001) was 6.0 fold.
For `c1ccc(CNCc2ccccc2)cc1` [dibenzylamine], the pKa [2] is given as 8.52.
For `CCOc1ccc(N(C)c2ccc(C(=C3C=CC(=[N+](CC)Cc4cccc(S(=O)(=O)[O-])c4)C=C3C)c3ccc(N(CC)Cc4cccc(S(=O)(=O)O)c4)cc3C)cc2)cc1` [methyl-BBG], the “increase in the dyes content in the retina with respect to the staining formulation according to the invention” value (retina) was 10.9 fold.

From patent publication EP3692101B1, “BRILLIANT BLUE (BBG) DYE DERIVATIVES AND STAINING COMPOSITIONS COMPRISING THE SAME FOR SELECTIVELY STAINING BIOLOGICAL SUBSTRATES” (priority 2017, dated 2019)
